This note sets out measurements from US8461289B2, “Bioresorbable polymers synthesized from monomer analogs of natural metabolites” (Rutgers, The State University of New Jersey, priority 2006, dated 2013).

The structures appear in SMILES notation. Values after ≈ are worked out from the molar mass of the structure shown. Like-named read-outs stand apart in the source and are kept apart here. A value given as a limit tells only on which side of the number the result lay.

The nature of the data set: Determination of solubility of monomers in PBS (HPLC of filtrate against calibration curve). Particulars: monomer in PBS (pH 7.4), filtered; for solubility at 2 h: aqueous buffer, thermodynamic from solid. The data set is classed as physicochemical. As to the method: About 30 mg of the monomer and 2 mL of PBS (pH 7.4) were added to a 2 dram vial. The vial was agitated on a vortex mixer for 2 h. If all the solid dissolved, more solid was added and agitation was continued. The mixture was filtered using a syringe filter to remove undissolved monomer. The clear filtrate was analyzed by HPLC by injecting 5 microliter of the filtrate. The area of the peak obtained was measured. A calibration curve was obtained by injecting known concentration of the monomer in methanol and plotting concentration against the area of the peaks obtained. Using this calibration curve the solubility of the monomer in PBS at ambient temperature was determined.
To determine the solubility at 37° C., the vials were placed in an incubator at 37° C. for 2 h. The mixture was then quickly filtered using syringe filter and then diluted 2× with PBS to prevent precipitation of the monomer. The solubility is determined using procedures similar to that used at room temperature solubility.

The mark [1] stands for this setting: ambient temperature / 25° C., agitated 2 h.

In the case of `CCOC(=O)[C@H](Cc1ccc(O)cc1)NC(=O)CCc1ccc(O)cc1` [DAT-tyrosine ethyl ester (DTE), DAT-tyrosine ethyl ester, reference compound], under setting [1], the “Solubility, mg/mL, 25° C.” value stood at 0.74 mg/mL (≈ 2.07 mM). For the molecule `CCOC(=O)C(Cc1ccc(Oc2ccc(O)cc2)cc1)NC(=O)CCc1ccc(O)cc1` (stereo not shown) [DAT-Thyronine ethyl ester], the “Solubility, mg/mL, 25° C.” value under setting [1] was below 0.05 mg/mL.

`CCOC(=O)[C@H](CO)NC(=O)CCc1ccc(O)cc1` [DAT-serine ethyl ester, Desaminotyrosyl Serine Ethyl Ester]: the solubility at 2 h was determined as 7.7 mg/mL (≈ 27.4 mM) (ambient temperature / 25° C., agitated 2 h, read-out: Solubility, mg/mL, 25° C.) and 14.1 mg/mL (≈ 50.2 mM) (incubator at 37° C. for 2 h, diluted 2× with PBS, read-out: Solubility, mg/mL, 37° C.).

With `CCOC(=O)C1CC(O)CN1C(=O)CCc1ccc(O)cc1` (stereo not drawn) [DAT-trans-Hydroxyproline ethyl ester, DAT-Hydroxyproline Ethyl Ester], the “Solubility, mg/mL, 25° C.” value under setting [1] is 12 mg/mL (≈ 39 mM). With `CCOC(=O)C(Cc1c[nH]c2ccc(O)cc12)NC(=O)CCc1ccc(O)cc1` (stereo not shown) [DAT-5-hydroxytryptophan ethyl ester, DAT-5-Hydroxytryptophan Ethyl Ester], under setting [1], the “Solubility, mg/mL, 25° C.” value is 0.15 mg/mL (≈ 0.378 mM). For the same molecule, the “Solubility, mg/mL, 37° C.” value (incubator at 37° C. for 2 h, diluted 2× with PBS) is recorded as 0.43 mg/mL (≈ 1.08 mM).
